In ChEMBL document CHEMBL4321885, “Biomimetic Macrocyclic Inhibitors of Human Cathepsin D: Structure-Activity Relationship and Binding Mode Analysis” (J Med Chem, 2020):
≈ marks a conversion by molar mass, not a printed value. Calls of active or inactive are those of the source. No cut-off for these calls is given here.

Experiments:
PBMC = assay: Cytotoxicity against human PBMC cells assessed as reduction in cell viability up to 100 uM measured after 72 hrs by Celltiter-glo assay; format: cell-based
NHDF = assay: Cytotoxicity against NHDF cells assessed as reduction in cell viability up to 100 uM measured after 72 hrs by Celltiter-glo assay; format: cell-based; conditions: human
[1] = Solubility of the compound in pH 7.4 phosphate buffered saline by HPLC-MS analysis; format: physicochemical
[2] = Apparent permeability in human Caco2 cells at 5 uM measured after 5 hrs by LC-MS analysis; format: ADME, cell-based; conditions: Caco-2
Sus scrofa = organism: Sus scrofa; assay: Inhibition of porcine pepsin at 50 nM using Abz-Lys-Pro-Ala-Glu-Phe-Nph-Ala-Leu as substrate preincubated for 10 mins followed by substrate addition and measured by FRET assay
Renin (Homo sapiens) [3] = target: T1, Renin (Homo sapiens) (UniProt P00797); assay: Inhibition of recombinant human N-terminal FLAG-tagged renin (67 to 406 residues) expressed in HEK cells at 5 uM using Arg-Glu(EDANS)-Ile-His-Pro-Phe-His-Leu-Val-Ile-His-Thr-Lys(Dabcyl)-Arg as substrate preincubated for 10 mins followed by substrate addition and measured by FRET assay
T1 sequence (whole entry): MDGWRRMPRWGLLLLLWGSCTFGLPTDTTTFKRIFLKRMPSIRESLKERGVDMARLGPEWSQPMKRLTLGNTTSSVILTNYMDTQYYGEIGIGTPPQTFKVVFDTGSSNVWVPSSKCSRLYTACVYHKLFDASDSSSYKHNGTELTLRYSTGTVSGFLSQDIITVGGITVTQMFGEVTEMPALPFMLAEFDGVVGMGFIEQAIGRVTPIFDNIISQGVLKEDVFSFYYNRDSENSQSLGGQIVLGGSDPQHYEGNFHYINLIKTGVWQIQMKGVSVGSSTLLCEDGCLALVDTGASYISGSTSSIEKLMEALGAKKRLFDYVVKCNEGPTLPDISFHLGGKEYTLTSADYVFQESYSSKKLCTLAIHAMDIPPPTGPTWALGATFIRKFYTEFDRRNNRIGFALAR

[4] = target: Beta-secretase 1 (Homo sapiens) (UniProt P56817); assay: Inhibition of recombinant human C-terminal 10His-tagged BACE1 expressed in mouse NS0 cells at 50 nM using Mca-Ser-Glu-Val-Asn-Leu-Asp-Ala-Glu-Phe-Arg-Lys(Dnp)-Arg-Arg as substrate preincubated for 10 mins followed by substrate addition and measured by FRET assay
Cathepsin D = Cathepsin D (Homo sapiens, UniProt P07339); assay: Inhibition of human placenta CatD using Abz-Lys-Pro-Ala-Glu-Phe-Nph-Ala-Leu as substrate preincubated for 10 mins followed by substrate addition and measured by FRET assay
[5] = target: Protease (Human immunodeficiency virus 1) (UniProt Q9YQ12); assay: Inhibition of HIV1 protease at 50 nM using Abz-Tyr-Ile-Nle-Nph-Gln-Arg as substrate preincubated for 10 mins followed by substrate addition and measured by FRET assay
[6] = target: Beta-secretase 1 (Homo sapiens) (UniProt P56817); assay: Inhibition of recombinant human C-terminal 10His-tagged BACE1 expressed in mouse NS0 cells at 5 uM using Mca-Ser-Glu-Val-Asn-Leu-Asp-Ala-Glu-Phe-Arg-Lys(Dnp)-Arg-Arg as substrate preincubated for 10 mins followed by substrate addition and measured by FRET assay
[7] = target: Protease (Human immunodeficiency virus 1) (UniProt Q9YQ12); assay: Inhibition of HIV1 protease at 5 uM using Abz-Tyr-Ile-Nle-Nph-Gln-Arg as substrate preincubated for 10 mins followed by substrate addition and measured by FRET assay
Renin (Homo sapiens) [8] = target: T1, Renin (Homo sapiens); assay: Inhibition of recombinant human N-terminal FLAG-tagged renin (67 to 406 residues) expressed in HEK cells at 50 nM using Arg-Glu(EDANS)-Ile-His-Pro-Phe-His-Leu-Val-Ile-His-Thr-Lys(Dabcyl)-Arg as substrate preincubated for 10 mins followed by substrate addition and measured by FRET assay
[9] = target: Saccharopepsin (Saccharomyces cerevisiae S288c) (UniProt P07267); assay: Inhibition of Baker's yeast proteinase A at 50 nM using Abz-Lys-Pro-Ala-Glu-Phe-Nph-Ala-Leu as substrate preincubated for 10 mins followed by substrate addition and measured by FRET assay
Ixodes ricinus = assay: Inhibition of Ixodes ricinus CatD expressed in Escherichia coli BL21(DE3) at 50 nM using Abz-Lys-Pro-Ala-Glu-Phe-Nph-Ala-Leu as substrate preincubated for 10 mins followed by substrate addition and measured by FRET assay

Chain of Protease (Human immunodeficiency virus 1) (Q9YQ12 as listed by the source): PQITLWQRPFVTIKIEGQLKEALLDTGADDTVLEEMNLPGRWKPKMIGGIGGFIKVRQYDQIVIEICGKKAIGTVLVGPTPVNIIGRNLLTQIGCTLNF
Chain of Saccharopepsin (Saccharomyces cerevisiae S288c) (P07267 whole entry): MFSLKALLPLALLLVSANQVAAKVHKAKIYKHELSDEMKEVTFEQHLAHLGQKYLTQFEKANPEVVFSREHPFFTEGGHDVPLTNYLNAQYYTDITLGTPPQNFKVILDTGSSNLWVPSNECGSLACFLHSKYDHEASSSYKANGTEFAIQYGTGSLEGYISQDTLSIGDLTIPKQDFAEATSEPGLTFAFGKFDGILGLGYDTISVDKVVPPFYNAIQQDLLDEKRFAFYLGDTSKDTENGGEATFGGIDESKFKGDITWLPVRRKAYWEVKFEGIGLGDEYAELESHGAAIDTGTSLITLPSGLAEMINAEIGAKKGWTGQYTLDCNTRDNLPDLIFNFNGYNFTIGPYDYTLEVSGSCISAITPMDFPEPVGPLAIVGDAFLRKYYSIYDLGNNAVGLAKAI
Chain of Cathepsin D (P07339 65-162 limits assumed): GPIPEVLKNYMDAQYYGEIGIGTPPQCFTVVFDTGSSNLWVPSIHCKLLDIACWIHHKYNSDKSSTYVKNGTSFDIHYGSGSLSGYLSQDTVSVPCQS
Chain of Cathepsin D (P07339 169-412 limits assumed): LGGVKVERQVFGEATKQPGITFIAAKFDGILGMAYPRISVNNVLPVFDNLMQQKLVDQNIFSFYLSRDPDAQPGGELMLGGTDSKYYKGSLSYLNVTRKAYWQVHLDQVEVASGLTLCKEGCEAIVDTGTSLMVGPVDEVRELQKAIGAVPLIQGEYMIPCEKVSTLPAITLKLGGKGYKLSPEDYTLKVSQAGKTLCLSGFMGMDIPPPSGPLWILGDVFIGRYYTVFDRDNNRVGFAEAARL
Chain of Beta-secretase 1 (Homo sapiens) (P56817 whole entry): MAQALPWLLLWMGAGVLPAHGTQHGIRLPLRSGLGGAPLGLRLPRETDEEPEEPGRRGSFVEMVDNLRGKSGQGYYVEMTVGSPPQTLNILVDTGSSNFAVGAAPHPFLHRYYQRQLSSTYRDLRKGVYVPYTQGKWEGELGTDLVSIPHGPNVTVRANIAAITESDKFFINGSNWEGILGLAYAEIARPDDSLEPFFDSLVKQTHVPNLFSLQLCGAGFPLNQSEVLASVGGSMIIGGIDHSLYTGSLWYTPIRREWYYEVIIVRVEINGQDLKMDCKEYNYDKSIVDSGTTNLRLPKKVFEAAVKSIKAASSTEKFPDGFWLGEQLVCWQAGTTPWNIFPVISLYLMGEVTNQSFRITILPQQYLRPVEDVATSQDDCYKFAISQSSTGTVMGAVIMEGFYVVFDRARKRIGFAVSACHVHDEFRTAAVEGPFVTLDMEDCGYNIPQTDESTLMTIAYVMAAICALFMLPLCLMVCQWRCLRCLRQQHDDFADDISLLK

Row | Structure (SMILES) | Activity (PBMC) | Activity (NHDF) | solubility [1] | Papp at 5 h, 5 µM [2] | inhibition (Sus scrofa) | inhibition (Renin (Homo sapiens) [3]) | inhibition [4] | IC50 (Cathepsin D) | inhibition [5] | inhibition [6] | inhibition [7] | inhibition (Renin (Homo sapiens) [8]) | inhibition [9] | inhibition (Ixodes ricinus)
1 | CC(C)CC(=O)N[C@H](C(=O)N[C@H](C(=O)N[C@@H](CC(C)C)[C@@H](O)CC(=O)N[C@@H](C)C(=O)N[C@@H](CC(C)C)[C@@H](O)CC(=O)O)C(C)C)C(C)C [PEPSTATIN] | Non-Toxic | Non-Toxic | 197 µg/mL (≈ 287 µM) | 0.11 ×10⁻⁶ cm/s | – | – | – | – | – | – | – | – | – | –
2 | O=C1C[C@H](O)[C@H](Cc2ccccc2)NC(=O)CCCCCCCCCCCNC(=O)[C@H](c2ccccc2)N1 | – | – | – | – | Active | Active | inactive | 27 nM | inactive | Active | Active | inactive | Active | Active
3 | CC(C)[C@@H]1NC(=O)C[C@H](O)[C@H](CC2CCCCC2)NC(=O)CCCCCCCCCCCNC1=O | – | – | – | – | Active | Active | inactive | 9 nM | inactive | Active | Active | inactive | Active | Active
4 | O=C1C[C@H](O)[C@H](Cc2ccccc2)NC(=O)CCCCCCCCCCCNC(=O)[C@H](Cc2ccccc2)N1 | – | – | – | – | Active | Active | inactive | 15 nM | inactive | Active | Active | inactive | Active | Active
5 | CC(C)[C@@H]1NC(=O)C[C@H](O)[C@H](Cc2ccccc2)NC(=O)CCCCCCCCCCCCCNC1=O | – | – | – | – | Active | Active | inactive | 11 nM | inactive | Active | Active | inactive | Active | Active
6 | CC(C)[C@@H]1NC(=O)C[C@H](O)[C@H](Cc2c[nH]c3ccccc23)NC(=O)CCCCCCCCCCCNC1=O | – | – | – | – | Active | Active | inactive | 190 nM | inactive | Active | Active | inactive | Active | Active
7 | CC(=O)NCCCC[C@@H]1NC(=O)C[C@H](O)[C@H](Cc2ccccc2)NC(=O)CCCCCCCCCCCNC1=O | – | – | – | – | Active | Active | inactive | 16 nM | inactive | Active | Active | inactive | Active | Active
8 | CC(C)[C@@H]1NC(=O)C[C@H](O)[C@H](Cc2ccc(Cl)c(Cl)c2)NC(=O)CCCCCCCCCCCNC1=O | – | – | – | – | – | Active | inactive | 4.2 nM | inactive | Active | Active | inactive | Active | Active
9 | CC[C@@H](C)[C@@H]1NC(=O)C[C@H](O)[C@H](Cc2ccccc2)NC(=O)CCCCCCCCCCCNC1=O | – | – | – | – | Active | Active | inactive | 3.8 nM | inactive | Active | Active | inactive | Active | Active
10 | CC(C)C[C@@H]1NC(=O)CCCCCCCCCCCNC(=O)[C@H](C(C)C)NC(=O)C[C@@H]1O | – | – | – | – | Active | Active | inactive | 22 nM | inactive | Active | Active | inactive | Active | Active
11 | CC(C)C[C@@H]1NC(=O)CCCCCCCCCCCNC(=O)[C@H](C)NC(=O)C[C@@H]1O | – | – | – | – | – | Active | inactive | 310 nM | inactive | Active | Active | inactive | Active | Active
12 | CC(C)[C@@H]1NC(=O)CC[C@H](Cc2ccccc2)NC(=O)CCCCCCCCCCCNC1=O | – | – | – | – | – | Active | inactive | 2000 nM | inactive | Active | Active | inactive | Active | Active
